This passage reports IC90 results from US20250179066A1, “ZWITTERIONIC ANTIBACTERIAL COMPOUNDS” (Hoffmann-La Roche Inc., priority 2022, published 2025).

Structures can show the parent of a compound that is named as a salt.

For the assay, the system named is Acinetobacter baumannii ATCC17961. The experiment in a line: Antimicrobial susceptibility testing: 90% growth inhibitory concentration (IC90) determination. Particulars: Acinetobacter baumannii, ATCC17961, 16 h, 90% growth inhibitory concentration against Acinetobacter baumannii ATCC17961, Iso-Sensitest broth, OD 600 nm over 16 h; read-out: ATCC 17961 IC90. The class given is cell-based. The procedure, abridged:
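Twofold serial dilutions (e.g. 10 to 0.0195 μM final) in Iso-Sensitest broth inoculated at ~5×10^5 CFU/mL, incubated at 35±2° C. OD600 read every minute for 16 h; IC90 is the concentration inhibiting 90% of growth during logarithmic phase.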
By IC90 is commonly meant the point of the concentration-response curve where the effect stands at 90%. On to `Cn1c(-c2cn(-c3cc4[nH]c(C(=O)N5CCS(=N)(=O)CC5)cc4cn3)nc2C(F)(F)F)cnc1C(=O)Nc1ccc(C(=O)N2CCN(C(=O)[C@H]3CC[N@+](CC(=O)O)(CC4CNC4)CC3)CC2)c(Cl)c1` [Example 114, cis-2-[1-(azetidin-3-ylmethyl)-4-[4-[2-chloro-4-[[5-[1-[2-(1-imino-1-keto-1,4-thiazinane-4-carbonyl)-1H-pyrrolo[3,2-c]pyridin-6-yl]-3-(trifluoromethyl)pyrazol-4-yl]-1-methyl-imidazole-2-carbonyl]amino]benzoyl]piperazine-1-carbonyl]piperidin-1-ium-1-yl]acetic acid. 1:1 2,2,2-trifluoroacetate], for which the IC90 was found to be 637 nM. With `Cn1c(-c2cn(-c3cc4[nH]c(C(=O)NCCO)cc4cn3)nc2C(F)(F)F)cnc1C(=O)Nc1ccc(C(=O)N2CCN(C(=O)[C@H]3CC[N@+](CC(=O)O)(CC4CNC4)CC3)CC2)c(Cl)c1` [Example 115, cis-2-[1-(azetidin-3-ylmethyl)-4-[4-[2-chloro-4-[[5-[1-[2-(2-hydroxyethylcarbamoyl)-1H-pyrrolo[3,2-c]pyridin-6-yl]-3-(trifluoromethyl)pyrazol-4-yl]-1-methyl-imidazole-2-carbonyl]amino]benzoyl]piperazine-1-carbonyl]piperidin-1-ium-1-yl]acetic acid. 1:1 2,2,2-trifluoroacetate] the figure was 295 nM; with `Cn1c(-c2cn(-c3cc4[nH]c(C(=O)N5CC6CNCC(C5)O6)cc4cn3)nc2C(F)(F)F)cnc1C(=O)Nc1ccc(C(=O)N2CCN(C(=O)[C@H]3CC[N@+](CC(=O)O)(CC4CNC4)CC3)CC2)c(Cl)c1` [Example 116, cis-2-[1-(azetidin-3-ylmethyl)-4-[4-[2-chloro-4-[[1-methyl-5-[1-[2-(9-oxa-3,7-diazabicyclo[3.3.1]nonane-3-carbonyl)-1H-pyrrolo[3,2-c]pyridin-6-yl]-3-(trifluoromethyl)pyrazol-4-yl]imidazole-2-carbonyl]amino]benzoyl]piperazine-1-carbonyl]piperidin-1-ium-1-yl]acetic acid. 1:1 2,2,2-trifluoroacetic acid. 1:1 2,2,2-trifluoroacetate], 213 nM. Then `Cn1c(-c2cn(-c3cc4[nH]c(C(=O)NCC(O)C(F)(F)F)cc4cn3)nc2C(F)(F)F)cnc1C(=O)Nc1ccc(C(=O)N2CCN(C(=O)[C@H]3CC[N@+](CC(=O)O)(CC4CNC4)CC3)CC2)c(Cl)c1` (stereo partly drawn) [Example 117, cis-2-[1-(azetidin-3-ylmethyl)-4-[4-[2-chloro-4-[[1-methyl-5-[1-[2-[(3,3,3-trifluoro-2-hydroxy-propyl)carbamoyl]-1H-pyrrolo[3,2-c]pyridin-6-yl]-3-(trifluoromethyl)pyrazol-4-yl]imidazole-2-carbonyl]amino]benzoyl]piperazine-1-carbonyl]piperidin-1-ium-1-yl]acetic acid. 1:1 2,2,2-trifluoroacetate], with 215 nM; and `Cn1c(-c2cn(-c3cc4[nH]c(C(=O)N5CCNCC5)cc4cn3)nc2C(F)(F)F)cnc1C(=O)Nc1ccc(C(=O)N2CCN(C(=O)[C@H]3CC[N@+](CC(=O)O)(CC4CNC4)CC3)CC2)c(Cl)c1` [Example 118, cis-2-[1-(azetidin-3-ylmethyl)-4-[4-[2-chloro-4-[[1-methyl-5-[1-[2-(piperazine-1-carbonyl)-1H-pyrrolo[3,2-c]pyridin-6-yl]-3-(trifluoromethyl)pyrazol-4-yl]imidazole-2-carbonyl]amino]benzoyl]piperazine-1-carbonyl]piperidin-1-ium-1-yl]acetic acid. 1:1 2,2,2-trifluoroacetate], with 213 nM; and `Cn1c(-c2cn(-c3cc4[nH]c(C(=O)N5CCOC(F)(F)C5)cc4cn3)nc2C(F)(F)F)cnc1C(=O)Nc1ccc(C(=O)N2CCN(C(=O)[C@H]3CC[N@+](CC(=O)O)(CC4CNC4)CC3)CC2)c(Cl)c1` [Example 119, cis-2-[1-(azetidin-3-ylmethyl)-4-[4-[2-chloro-4-[[5-[1-[2-(2,2-difluoromorpholine-4-carbonyl)-1H-pyrrolo[3,2-c]pyridin-6-yl]-3-(trifluoromethyl)pyrazol-4-yl]-1-methyl-imidazole-2-carbonyl]amino]benzoyl]piperazine-1-carbonyl]piperidin-1-ium-1-yl]acetic acid. 1:1 2,2,2-trifluoroacetate], with 236 nM. On to `Cn1c(-c2cn(-c3cc4[nH]c(C(=O)NC5CCNC5=O)cc4cn3)nc2C(F)(F)F)cnc1C(=O)Nc1ccc(C(=O)N2CCN(C(=O)[C@H]3CC[N@+](CC(=O)O)(CC4CNC4)CC3)CC2)c(Cl)c1` (stereo partly drawn) [Example 120, cis-2-[1-(azetidin-3-ylmethyl)-4-[4-[2-chloro-4-[[5-[1-[2-[(2-ketopyrrolidin-3-yl)carbamoyl]-1H-pyrrolo[3,2-c]pyridin-6-yl]-3-(trifluoromethyl)pyrazol-4-yl]-1-methyl-imidazole-2-carbonyl]amino]benzoyl]piperazine-1-carbonyl]piperidin-1-ium-1-yl]acetic acid. 1:1 2,2,2-trifluoroacetate], for which the IC90 was determined as 527 nM. Then `Cn1c(-c2cn(-c3cc4[nH]c(C(=O)N5CCO[C@]6(CCOC6)C5)cc4cn3)nc2C(F)(F)F)cnc1C(=O)Nc1ccc(C(=O)N2CCN(C(=O)[C@H]3CC[N@+](CC(=O)O)(CC4CNC4)CC3)CC2)c(Cl)c1` [Example 121, cis-2-[1-(azetidin-3-ylmethyl)-4-[4-[2-chloro-4-[[5-[1-[2-[(5R)-2,6-dioxa-9-azaspiro[4.5]decane-9-carbonyl]-1H-pyrrolo[3,2-c]pyridin-6-yl]-3-(trifluoromethyl)pyrazol-4-yl]-1-methyl-imidazole-2-carbonyl]amino]benzoyl]piperazine-1-carbonyl]piperidin-1-ium-1-yl]acetic acid. 1:1 2,2,2-trifluoroacetate], with 375 nM; and `Cn1c(-c2cn(-c3cc4[nH]c(C(=O)N5CCSCC5)cc4cn3)nc2C(F)(F)F)cnc1C(=O)Nc1ccc(C(=O)N2CCN(C(=O)[C@H]3CC[N@+](CC(=O)O)(CC4CNC4)CC3)CC2)c(Cl)c1` [Example 122, cis-2-[1-(azetidin-3-ylmethyl)-4-[4-[2-chloro-4-[[1-methyl-5-[1-[2-(thiomorpholine-4-carbonyl)-1H-pyrrolo[3,2-c]pyridin-6-yl]-3-(trifluoromethyl)pyrazol-4-yl]imidazole-2-carbonyl]amino]benzoyl]piperazine-1-carbonyl]piperidin-1-ium-1-yl]acetic acid. 1:1 2,2,2-trifluoroacetate], with 235 nM. With `CN(C)C(=O)c1cc2cnc(-n3cc(-c4cnc(C(=O)Nc5ccc(C(=O)N6CCN(C(=O)[C@H]7CC[N@+](CC(=O)O)(CC8CNC8)CC7)CC6)c(Cl)c5)n4C)c(C(F)(F)F)n3)cc2[nH]1` [Example 123, cis-2-[1-(azetidin-3-ylmethyl)-4-[4-[2-chloro-4-[[5-[1-[2-(dimethylcarbamoyl)-1H-pyrrolo[3,2-c]pyridin-6-yl]-3-(trifluoromethyl)pyrazol-4-yl]-1-methyl-imidazole-2-carbonyl]amino]benzoyl]piperazine-1-carbonyl]piperidin-1-ium-1-yl]acetic acid. 1:1 2,2,2-trifluoroacetate] the figure was 216 nM; with `COCCNc1ccc(-n2cc(-c3cnc(C(=O)Nc4ccc(C(=O)N5CCN(C(=O)[C@H]6CC[N@+](CC(=O)O)(CC7CNC7)CC6)CC5)c(F)c4)n3C)c(C(F)(F)F)n2)c(F)c1` [Example 124, cis-2-[1-(azetidin-3-ylmethyl)-4-[4-[2-fluoro-4-[[5-[1-[2-fluoro-4-(2-methoxyethylamino)phenyl]-3-(trifluoromethyl)pyrazol-4-yl]-1-methyl-imidazole-2-carbonyl]amino]benzoyl]piperazine-1-carbonyl]piperidin-1-ium-1-yl]acetic acid; formate], 103 nM. Then `Cn1c(-c2cn(-c3cc4[nH]c(C(=O)NO)cc4cn3)nc2C(F)(F)F)cnc1C(=O)Nc1ccc(C(=O)N2CCN(C(=O)[C@H]3CC[N@+](CC(=O)O)(CC4CNC4)CC3)CC2)c(Cl)c1` [Example 125, cis-2-[1-(azetidin-3-ylmethyl)-4-[4-[2-chloro-4-[[5-[1-[2-(hydroxycarbamoyl)-1H-pyrrolo[3,2-c]pyridin-6-yl]-3-(trifluoromethyl)pyrazol-4-yl]-1-methyl-imidazole-2-carbonyl]amino]benzoyl]piperazine-1-carbonyl]piperidin-1-ium-1-yl]acetic acid. 1:1 2,2,2-trifluoroacetate], with 361 nM; and `Cn1c(-c2cn(-c3ccc(NCCOC(F)F)cc3F)nc2C(F)(F)F)cnc1C(=O)Nc1ccc(C(=O)N2CCN(C(=O)[C@H]3CC[N@+](CC(=O)O)(CC4CNC4)CC3)CC2)c(Cl)c1` [Example 126, cis-2-[1-(azetidin-3-ylmethyl)-4-[4-[2-chloro-4-[[5-[1-[4-[2-(difluoromethoxy)ethylamino]-2-fluoro-phenyl]-3-(trifluoromethyl)pyrazol-4-yl]-1-methyl-imidazole-2-carbonyl]amino]benzoyl]piperazine-1-carbonyl]piperidin-1-ium-1-yl]acetic acid;formate], with 176 nM; and `Cc1cc(NC(=O)c2ncc(-c3cn(-c4ccc5[nH]c(CCO)cc5n4)nc3C(F)(F)F)n2C)ccc1C(=O)N1CCN(C(=O)[C@H]2CC[N@@+](CCCN)(CC(=O)O)CC2)CC1` [Example 127, cis-2-[1-(3-aminopropyl)-4-[4-[4-[[5-[1-[2-(2-hydroxyethyl)-1H-pyrrolo[3,2-b]pyridin-5-yl]-3-(trifluoromethyl)pyrazol-4-yl]-1-methyl-imidazole-2-carbonyl]amino]-2-methyl-benzoyl]piperazine-1-carbonyl]piperidin-1-ium-1-yl]acetic acid. 1:1 2,2,2-trifluoroacetate], with 364 nM.
